Like-named read-outs stand apart in the source and are kept apart here.
How the values were obtained:
HDAC10 = HDAC10 (Homo sapiens, UniProt Q969S8); experiment: HDACs inhibition assay, HDAC10
Experimental: (§2) The inhibition assays for HDACs were carried out according to standard protocols. […] The reaction was stopped by the addition of 45 μl of 100 mM HEPES (pH 7.5) and 0.08% sodium dodecyl sulfate (SDS). The substrate and the product were then separated electrophoretically using a LabChip 3000 system (Caliper Life Sciences, Hopkinton, MA) with blue laser excitation and green fluorescence detection.

[1] = system: Human glioma cell line LN229; experiment: MTT cell viability assay, LN229; format: cell-based; details: LN-229, MTT, 72 h, read-out: IC50 antiproliferative activity LN229
Experimental: (§1) Cell viability was measured using the 3-(4,5-dimethylthiazol-2-yl)-2,5-diphenyltetrazolium bromide (MTT) assay and was expressed as a ratio to the absorbance value at 570 nm of the control cells.

[2] = system: Human colon carcinoma cell line SW-620; experiment: MTT cell viability assay, SW-620; format: cell-based; details: SW-620, MTT, 72 h, read-out: IC50 antiproliferative activity SW-620
Experimental: as §1

U87 cells [3] = experiment: Cell cycle analysis by flow cytometry; format: cell-based, Human; details: 2.5 μM, 36 h (control 4.6%)
Experimental: […] Cells were detached, fixed in 70% ethanol in PBS (−20°C) overnight and resuspended in PBS supplemented with 100 µg/ml RNase and 50 µg/ml PI for 30 min. Cell cycle analysis was performed on a flow cytometry (FACSCalibur BD, BD Biosciences, San Jose, CA, USA).
Inhibition of HDACs results in anticancer effect through various mechanisms, like cell cycle arrest, reduced proliferation, and induction of apoptosis ([30]). Thus, the cell cycle profile of the human GBM cell line U87 treated with DMC-HA was analyzed by using flow cytometry. […] Although in control cells, only 4.6% of cells were in G2/M phase, 14.5% of cells in G2/M phase were found after treatment with 2.5 μM DMC-HA.

HDAC3 = HDAC3 (Homo sapiens, UniProt O15379); experiment: HDACs inhibition assay, HDAC3
Experimental: as §2

[4] = system: Human liver cancer cell line HepG2; experiment: MTT cell viability assay, HepG2; format: cell-based; details: HepG2, MTT, 72 h, read-out: IC50 antiproliferative activity HepG2
Experimental: as §1

U87 cells [5] = experiment: LDH release; format: cell-based, Human; details: increasing concentrations, 48 h
HDAC1 = HDAC1 (Homo sapiens, UniProt Q13547); experiment: HDACs inhibition assay, HDAC1
Experimental: as §2

[6] = system: Human umbilical vein endothelial cells HUVEC; experiment: MTT cell viability assay, HUVEC; format: cell-based
Experimental: as §1

[7] = system: Human leukemia cell line K562; experiment: MTT cell viability assay, K562; format: cell-based; details: K562, MTT, 72 h, read-out: IC50 antiproliferative activity K562
Experimental: as §1

HDAC4 = HDAC4 (Homo sapiens, UniProt P56524); experiment: HDACs inhibition assay, HDAC4
Experimental: as §2

HDAC5 = HDAC5 (Homo sapiens, UniProt Q9UQL6); experiment: HDACs inhibition assay, HDAC5
Experimental: as §2

[8] = Pharmacokinetic study in mice; format: in vivo, SD mice; details: plasma; for Tmax: 10 mg/kg
Experimental: The animal studies were approved by the Institutional Animal Care and Used Committee. The pharmacokinetic study of DMC-HA was carried out with female SD mice. The compound (2.0 mM) was suspended in DMSO (10%) and Tween 80 (10%) in PBS (80%). A single dose of 1 mg/kg was administrated by intravenous injection (n = 3 mice), followed by blood collection via retro-orbital bleeding at 0.25, 0.5, 2.0, 4.0, 8.0, 12.0, and 24 h. Whole blood samples were added to a tube containing ethylenediaminetetraacetic acid (EDTA) and centrifuged. Plasma was collected and stored at −20°C. Compound standards were prepared with pooled plasma samples. Fifty microliters of thawed plasma and standards were added into wells of Ostro Pass-Through Sample Preparation Plate (Waters) for solid phase extraction. Acetonitrile (150 μl) containing internal standard was added and mixed by pipette. Next, clear sample solution was eluted by positive pressure processor under 60 psi for 5 min. The sample solution can be used directly for LC-MS/MS analysis.
The preliminary in vivo pharmacokinetic study for DMC-HA was performed in mice. SD mice were intravenously injected with 1 mg/kg DMC-HA or orally administrated with 10 mg/kg DMC-HA. Plasma samples were collected and analyzed with LC-MS/MS.

HDAC11 = HDAC11 (Homo sapiens, UniProt Q96DB2); experiment: HDACs inhibition assay, HDAC11
Experimental: as §2

[9] = system: Human glioblastoma cell line U87; experiment: MTT cell viability assay, U87; format: cell-based; details: MTT, 72 h, read-out: IC50 antiproliferative activity U87
Experimental: Human GBM U87 cell line was purchased from the American Type Culture Collection (ATCC). Cells were cultured in Dulbecco’s modified Eagle’s medium (DMEM) supplemented with 10% fetal bovine serum (FBS) and maintained in a 37°C, 5% CO2 incubator. After cells were routinely passaged at 2- to 3-day intervals, experiments were carried out when the cells entered exponential growth phase.
as §1

HDAC6 = HDAC6 (Homo sapiens, UniProt Q9UBN7); experiment: HDACs inhibition assay, HDAC6
Experimental: as §2

all eight cell lines = experiment: Antiproliferative activity, panel of eight cancer cell lines (summary); format: cell-based; details: Homo sapiens; summary over the eight cancer cell lines of Table 2; read-out: IC50 values against all eight cell lines
Experimental: Cells (5 × 10^4) were seeded into 96-well plates and exposed to vehicle (PBS) or different concentrations of compounds for 72 h. Cell viability was measured using the 3-(4,5-dimethylthiazol-2-yl)-2,5-diphenyltetrazolium bromide (MTT) assay and was expressed as a ratio to the absorbance value at 570 nm of the control cells.
As DMC-HA was identified as a potent novel inhibitor for HDACs, its antiproliferative activities on a panel of cancer cell lines and normal cells were evaluated, including four glioma cell lines, and the results are shown in Table 2. Vorinostat and curcumin were also tested as positive controls. […].

[10] = female, SD, mouse, iv, i.v. 1 mg/kg
[11] = female, SD, mouse, po, p.o. 10 mg/kg

HDAC6, sequence (Q9UBN7 whole entry): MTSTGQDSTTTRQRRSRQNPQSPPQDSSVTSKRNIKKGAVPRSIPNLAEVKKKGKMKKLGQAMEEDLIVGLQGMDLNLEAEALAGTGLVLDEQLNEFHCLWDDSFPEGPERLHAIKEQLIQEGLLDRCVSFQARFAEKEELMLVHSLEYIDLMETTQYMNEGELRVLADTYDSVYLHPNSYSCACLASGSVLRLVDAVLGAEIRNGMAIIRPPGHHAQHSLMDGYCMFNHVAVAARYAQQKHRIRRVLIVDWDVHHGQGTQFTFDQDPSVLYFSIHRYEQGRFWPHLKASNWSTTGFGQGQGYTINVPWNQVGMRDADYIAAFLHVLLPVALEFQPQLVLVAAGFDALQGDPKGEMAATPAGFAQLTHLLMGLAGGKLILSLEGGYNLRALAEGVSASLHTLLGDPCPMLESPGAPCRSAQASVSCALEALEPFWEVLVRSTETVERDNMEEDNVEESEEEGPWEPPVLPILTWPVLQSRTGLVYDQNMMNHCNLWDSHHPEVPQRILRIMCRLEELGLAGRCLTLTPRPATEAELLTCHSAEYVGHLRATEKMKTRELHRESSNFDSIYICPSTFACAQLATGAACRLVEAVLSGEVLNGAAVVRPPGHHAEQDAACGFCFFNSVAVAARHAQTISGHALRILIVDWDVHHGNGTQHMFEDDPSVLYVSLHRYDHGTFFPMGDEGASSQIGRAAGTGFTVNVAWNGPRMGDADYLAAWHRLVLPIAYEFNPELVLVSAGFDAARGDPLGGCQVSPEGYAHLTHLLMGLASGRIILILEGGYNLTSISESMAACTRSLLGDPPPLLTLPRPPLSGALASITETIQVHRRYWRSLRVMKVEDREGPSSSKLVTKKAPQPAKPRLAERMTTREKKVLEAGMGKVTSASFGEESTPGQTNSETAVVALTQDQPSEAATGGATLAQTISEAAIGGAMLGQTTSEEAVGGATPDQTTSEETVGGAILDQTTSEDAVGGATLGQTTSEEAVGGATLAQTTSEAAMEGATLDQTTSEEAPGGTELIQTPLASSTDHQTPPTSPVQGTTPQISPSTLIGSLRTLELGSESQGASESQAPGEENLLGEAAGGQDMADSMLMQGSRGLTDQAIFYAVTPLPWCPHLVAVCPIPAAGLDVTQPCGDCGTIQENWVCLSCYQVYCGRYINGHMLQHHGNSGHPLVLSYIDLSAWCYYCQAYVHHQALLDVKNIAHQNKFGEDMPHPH
HDAC5, sequence (Q9UQL6 whole entry): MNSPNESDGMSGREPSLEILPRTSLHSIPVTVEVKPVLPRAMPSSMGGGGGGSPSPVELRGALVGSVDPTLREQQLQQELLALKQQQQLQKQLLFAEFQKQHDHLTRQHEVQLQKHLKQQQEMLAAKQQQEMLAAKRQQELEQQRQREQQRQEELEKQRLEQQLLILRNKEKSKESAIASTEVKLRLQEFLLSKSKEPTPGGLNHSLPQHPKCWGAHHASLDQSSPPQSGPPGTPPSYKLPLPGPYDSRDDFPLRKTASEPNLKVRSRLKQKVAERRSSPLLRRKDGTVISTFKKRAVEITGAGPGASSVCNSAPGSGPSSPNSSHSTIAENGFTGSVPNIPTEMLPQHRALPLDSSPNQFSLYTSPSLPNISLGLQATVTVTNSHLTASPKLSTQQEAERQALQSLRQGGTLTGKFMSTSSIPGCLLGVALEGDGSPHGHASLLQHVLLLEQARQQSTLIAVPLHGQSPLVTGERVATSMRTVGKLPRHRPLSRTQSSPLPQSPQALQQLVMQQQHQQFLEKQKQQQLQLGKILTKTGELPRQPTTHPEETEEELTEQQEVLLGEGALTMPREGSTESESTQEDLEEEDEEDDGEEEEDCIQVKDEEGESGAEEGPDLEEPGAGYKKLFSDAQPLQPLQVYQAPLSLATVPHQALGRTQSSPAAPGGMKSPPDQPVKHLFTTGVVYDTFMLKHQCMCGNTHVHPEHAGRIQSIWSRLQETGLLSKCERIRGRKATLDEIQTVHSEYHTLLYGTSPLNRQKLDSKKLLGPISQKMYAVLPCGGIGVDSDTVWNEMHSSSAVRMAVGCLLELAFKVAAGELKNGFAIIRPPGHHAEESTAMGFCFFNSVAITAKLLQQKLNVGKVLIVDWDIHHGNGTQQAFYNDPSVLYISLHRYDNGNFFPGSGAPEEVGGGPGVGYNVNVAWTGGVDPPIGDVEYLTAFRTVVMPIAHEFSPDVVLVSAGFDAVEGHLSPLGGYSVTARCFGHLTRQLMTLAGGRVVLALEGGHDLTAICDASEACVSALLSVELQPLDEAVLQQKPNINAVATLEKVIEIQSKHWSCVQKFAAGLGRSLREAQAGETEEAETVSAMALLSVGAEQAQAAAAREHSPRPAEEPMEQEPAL
HDAC11, sequence (Q96DB2 whole entry): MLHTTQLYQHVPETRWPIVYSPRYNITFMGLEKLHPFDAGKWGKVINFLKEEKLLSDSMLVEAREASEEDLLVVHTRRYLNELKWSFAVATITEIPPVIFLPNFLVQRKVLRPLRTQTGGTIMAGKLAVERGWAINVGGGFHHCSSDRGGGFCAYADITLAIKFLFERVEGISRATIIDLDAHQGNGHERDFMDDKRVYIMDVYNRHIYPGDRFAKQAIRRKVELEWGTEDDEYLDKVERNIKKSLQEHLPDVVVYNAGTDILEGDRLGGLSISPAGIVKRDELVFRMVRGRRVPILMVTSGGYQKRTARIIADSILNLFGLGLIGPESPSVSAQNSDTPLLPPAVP
HDAC4, sequence (P56524 whole entry): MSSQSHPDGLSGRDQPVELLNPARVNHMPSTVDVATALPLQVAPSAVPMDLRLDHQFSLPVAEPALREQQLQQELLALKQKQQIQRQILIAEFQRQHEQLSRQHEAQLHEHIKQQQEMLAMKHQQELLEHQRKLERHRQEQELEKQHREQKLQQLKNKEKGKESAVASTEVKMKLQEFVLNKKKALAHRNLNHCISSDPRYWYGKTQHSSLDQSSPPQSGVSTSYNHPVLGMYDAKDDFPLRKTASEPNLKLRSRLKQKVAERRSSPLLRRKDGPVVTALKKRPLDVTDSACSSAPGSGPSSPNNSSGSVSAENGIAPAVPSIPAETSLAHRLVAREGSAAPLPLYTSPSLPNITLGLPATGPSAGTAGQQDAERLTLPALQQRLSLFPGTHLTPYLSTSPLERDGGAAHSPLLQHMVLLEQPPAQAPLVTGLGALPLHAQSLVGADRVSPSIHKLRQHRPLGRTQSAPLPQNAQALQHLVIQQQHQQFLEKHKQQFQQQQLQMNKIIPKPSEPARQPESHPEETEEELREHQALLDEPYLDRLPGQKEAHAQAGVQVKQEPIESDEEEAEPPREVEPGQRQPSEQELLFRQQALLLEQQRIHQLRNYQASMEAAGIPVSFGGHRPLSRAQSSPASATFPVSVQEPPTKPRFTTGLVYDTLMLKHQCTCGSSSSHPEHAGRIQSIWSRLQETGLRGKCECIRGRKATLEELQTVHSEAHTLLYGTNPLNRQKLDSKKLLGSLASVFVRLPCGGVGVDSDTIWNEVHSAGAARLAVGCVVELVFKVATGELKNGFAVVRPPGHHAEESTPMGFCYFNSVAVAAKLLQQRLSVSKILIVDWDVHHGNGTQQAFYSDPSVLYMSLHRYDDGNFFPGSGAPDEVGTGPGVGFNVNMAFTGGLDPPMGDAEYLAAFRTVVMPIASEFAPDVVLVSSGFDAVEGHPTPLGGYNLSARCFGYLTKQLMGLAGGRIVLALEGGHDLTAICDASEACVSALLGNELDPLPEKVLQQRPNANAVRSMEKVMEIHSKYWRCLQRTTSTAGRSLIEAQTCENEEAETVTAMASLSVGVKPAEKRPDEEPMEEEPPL
HDAC10, sequence (Q969S8 whole entry): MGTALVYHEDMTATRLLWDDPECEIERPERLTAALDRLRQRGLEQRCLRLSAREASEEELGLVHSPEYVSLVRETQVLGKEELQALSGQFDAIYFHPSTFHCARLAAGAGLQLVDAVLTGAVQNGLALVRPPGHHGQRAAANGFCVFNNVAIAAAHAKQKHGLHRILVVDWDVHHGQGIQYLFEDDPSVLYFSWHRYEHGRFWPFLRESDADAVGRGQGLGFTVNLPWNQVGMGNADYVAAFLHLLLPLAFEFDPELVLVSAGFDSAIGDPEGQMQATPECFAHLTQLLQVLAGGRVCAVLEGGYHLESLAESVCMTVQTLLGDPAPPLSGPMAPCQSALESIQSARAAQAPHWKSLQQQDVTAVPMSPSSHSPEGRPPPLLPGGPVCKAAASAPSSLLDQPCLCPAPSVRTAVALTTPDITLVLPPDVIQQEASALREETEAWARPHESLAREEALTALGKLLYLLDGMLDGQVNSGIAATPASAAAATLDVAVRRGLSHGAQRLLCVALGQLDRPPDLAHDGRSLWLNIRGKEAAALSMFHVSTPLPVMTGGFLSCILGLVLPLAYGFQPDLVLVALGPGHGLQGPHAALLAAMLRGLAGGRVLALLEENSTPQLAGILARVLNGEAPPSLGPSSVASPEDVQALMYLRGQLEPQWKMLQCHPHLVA
HDAC3, sequence (O15379 whole entry): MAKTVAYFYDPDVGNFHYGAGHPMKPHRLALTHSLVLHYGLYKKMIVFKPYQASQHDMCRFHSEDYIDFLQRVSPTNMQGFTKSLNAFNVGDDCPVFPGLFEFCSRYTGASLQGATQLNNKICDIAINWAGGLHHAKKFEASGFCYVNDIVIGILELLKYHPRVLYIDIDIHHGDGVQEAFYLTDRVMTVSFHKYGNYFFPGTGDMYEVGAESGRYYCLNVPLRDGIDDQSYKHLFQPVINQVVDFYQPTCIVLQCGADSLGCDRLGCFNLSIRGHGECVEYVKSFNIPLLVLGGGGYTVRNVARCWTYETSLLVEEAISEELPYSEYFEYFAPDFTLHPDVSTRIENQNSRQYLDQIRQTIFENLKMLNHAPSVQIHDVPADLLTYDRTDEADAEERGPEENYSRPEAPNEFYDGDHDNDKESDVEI
HDAC3, sequence (Q9Y618 395-489 partner limits assumed): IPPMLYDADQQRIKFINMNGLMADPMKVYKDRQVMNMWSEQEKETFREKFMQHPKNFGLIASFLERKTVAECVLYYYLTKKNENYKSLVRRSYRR

COc1cc(/C=C/C(=O)CC(=O)/C=C/c2ccc(/C=C/C(=O)NO)cc2)ccc1O [DMC-HA]
IC50 (HDAC10): 8.39 µM | IC50 [1]: 3.38 ± 0.29 µM | IC50 [2]: 3.22 ± 0.3 µM | cells in G2/M phase (U87 cells [3]): 14.5% | IC50 (HDAC3): 1.67 µM | IC50 [4]: 4.28 ± 0.52 µM | LDH release / cell death (U87 cells [5]): induces cell death in a dose-dependent manner | IC50 (HDAC1): 0.51 µM | IC50 ([6]; Homo sapiens, HUVEC, MTT, 72 h, normal cells, read-out: IC50 HUVEC): 27.4 ± 3.94 µM | toxicity to human umbilical vein endothelial cells (HUVECs) ([6]; in words): low toxicity | IC50 [7]: 1.95 ± 0.71 µM | IC50 (HDAC4): > 10 µM | IC50 (HDAC5): > 10 µM | AUC(0-inf) [8, 10]: 502 ng·h/mL | AUC(0-t) [8, 10]: 493 ng·h/mL | clearance [8, 10]: 30 mL/min/kg | half-life [8, 10]: 3.2 h | bioavailability ([8]; female, SD, mouse, oral, p.o. 10 mg/kg vs i.v. 1 mg/kg, read-out: F (oral bioavailability)): 40.2% | Tmax ([8]; female, SD, mouse, po, p.o. 10 mg/kg, read-out: Tmax): 0.67 h | Tmax ([8]; female, SD, mouse, po, p.o. 10 mg/kg, read-out: time of peak concentration (converted)): ~0.667 h | AUC(0-inf) [8, 11]: 2010 ng·h/mL | AUC(0-t) [8, 11]: 1980 ng·h/mL | Cmax [8, 11]: 1070 ng/mL | half-life [8, 11]: 4.1 h | Cl ([8]; p.o. 10 mg/kg): 145 mL/min/kg | peak concentration ([8]; p.o. 10 mg/kg): about 1.0 μg/ml | IC50 (HDAC11): > 10 µM | IC50 [9]: 2.78 ± 0.81 µM | IC50 (HDAC6): 0.38 µM | IC50 (all eight cell lines): < 5.3 µM
